Biological target: T1, PPARδ (Homo sapiens, UniProt Q03181)
T1 construct: gene PPARD; pcDNA3-PPARδ expressed in HeLa cells
T1 sequence (Q03181 1-441): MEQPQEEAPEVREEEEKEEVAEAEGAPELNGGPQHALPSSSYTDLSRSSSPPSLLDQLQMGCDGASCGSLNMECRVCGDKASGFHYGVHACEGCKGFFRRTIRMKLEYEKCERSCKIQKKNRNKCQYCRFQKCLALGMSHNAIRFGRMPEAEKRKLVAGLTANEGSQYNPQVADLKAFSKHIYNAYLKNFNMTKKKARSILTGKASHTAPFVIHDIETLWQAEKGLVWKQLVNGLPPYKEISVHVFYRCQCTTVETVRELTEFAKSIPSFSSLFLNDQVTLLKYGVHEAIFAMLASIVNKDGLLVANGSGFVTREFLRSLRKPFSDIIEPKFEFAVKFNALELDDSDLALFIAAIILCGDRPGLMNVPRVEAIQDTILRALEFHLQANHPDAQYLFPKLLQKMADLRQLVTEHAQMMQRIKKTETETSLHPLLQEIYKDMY
Test: PPRE-luciferase transactivation assay in HeLa cells, single concentration ([…])
Assay type: cell-based
Conditions: read-out: PPRE-luciferase transactivation assay in HeLa cells, single concentration (10 μM)

Cc1ccc(Cn2c(=N)n(CC(=O)O)c3ccccc32)cc1 [compound 5, [2-imino-3-(4-methylbenzyl)-2,3-dihydro-1H-benzimidazol-1-yl]acetic acid]
fold induction at 10 µM: 6.4

— publication PMC4358979, “Structure-Based Virtual Screening and Discovery of New PPARδ/γ Dual Agonist and PPARδ and γ Agonists” (PLoS ONE, 2015)
